Data: ChEMBL document CHEMBL6071165, “Design, synthesis and biological evaluation of plant-derived miliusol derivatives achieve TNBC profound regression in vivo” (Eur J Med Chem, 2024)

How the values were obtained:
[1] = system: BT-549; test: Antiproliferative activity against human BT-549 cells assessed as inhibition of cell proliferation incubated for 24 hrs by MTT assay; assay type: functional, cell-based; conditions: BT-549, 24 h
[2] = system: MDA-MB-231; test: Antiproliferative activity against human MDA-MB-231 cells assessed as inhibition of cell proliferation incubated for 48 hrs by MTT assay; assay type: functional, cell-based; conditions: MDA-MB-231, 48 h
[3] = system: MDA-MB-231; test: Antiproliferative activity against human MDA-MB-231 cells assessed as inhibition of cell proliferation incubated for 24 hrs by MTT assay; assay type: functional, cell-based; conditions: MDA-MB-231, 24 h
[4] = system: BT-549; test: Antiproliferative activity against human BT-549 cells assessed as inhibition of cell proliferation incubated for 48 hrs by MTT assay; assay type: functional, cell-based; conditions: BT-549, 48 h
[5] = system: BT-549; test: Potency index, ratio of miliusol IC50 to test compound IC50 for antiproliferative activity against human BT-549 cells assessed as inhibition of cell proliferation incubated for 48 hrs by MTT assay; assay type: functional
[6] = Potency index, ratio of miliusol IC50 to test compound IC50 for antiproliferative activity against human MDA-MB-231 cells assessed as inhibition of cell proliferation incubated for 48 hrs by MTT assay; assay type: functional
[7] = Selectivity ratio of IC50 for antiproliferative activity against human MCF-10A cells assessed as inhibition of cell proliferation incubated for 24 hrs by MTT assay to IC50 for antiproliferative activity against human BT-549 cells assessed as inhibition of cell proliferation incubated for 24 hrs by MTT assay; assay type: toxicity, cell-based; conditions: MCF-10A cells versus BT-549 cells, read-out: Ratio IC50
[8] = Antiproliferative activity against human MCF-10A cells assessed as inhibition of cell proliferation incubated for 48 hrs by MTT assay; assay type: toxicity, cell-based
[9] = Selectivity ratio of IC50 for antiproliferative activity against human MCF-10A cells assessed as inhibition of cell proliferation incubated for 48 hrs by MTT assay to IC50 for antiproliferative activity against human BT-549 cells assessed as inhibition of cell proliferation incubated for 48 hrs by MTT assay; assay type: toxicity, cell-based; conditions: MCF-10A cells versus BT-549 cells, read-out: Ratio IC50
[10] = Selectivity ratio of IC50 for antiproliferative activity against human MCF-10A cells assessed as inhibition of cell proliferation incubated for 48 hrs by MTT assay to IC50 for antiproliferative activity against human MDA-MB-231 cells assessed as inhibition of cell proliferation incubated for 48 hrs by MTT assay; assay type: cell-based; conditions: MCF-10A cells versus MDA-MB-231 cells, read-out: Ratio IC50
[11] = Selectivity ratio of IC50 for antiproliferative activity against human MCF-10A cells assessed as inhibition of cell proliferation incubated for 24 hrs by MTT assay to IC50 for antiproliferative activity against human MDA-MB-231 cells assessed as inhibition of cell proliferation incubated for 24 hrs by MTT assay; assay type: cell-based; conditions: MCF-10A cells versus MDA-MB-231 cells, read-out: Ratio IC50
[12] = Antiproliferative activity against human MCF-10A cells assessed as inhibition of cell proliferation incubated for 24 hrs by MTT assay; assay type: toxicity, cell-based

Row | SMILES | IC50 [1] | IC50 [2] | IC50 [3] | IC50 [4] | Ratio IC50 [5] | Ratio IC50 [6] | selectivity ratio at 24 h [7] | IC50 at 48 h [8] | selectivity ratio at 48 h [9] | selectivity ratio at 48 h [10] | selectivity ratio at 24 h [11] | IC50 at 24 h [12]
1 | COc1cccc(OC)c1C(=O)Nc1ccc(CC(=O)O[C@@H]2C=CC(=O)[C@@]3(CC(=O)O[C@@H]3/C=C(\C)CCC=C(C)C)C2)cc1 | 2090 nM | 780 nM | 1300 nM | 1450 nM |  |  |  |  |  |  |  | 
2 | CC(C)=CCC/C(C)=C/[C@H]1OC(=O)C[C@]12C[C@H](OC(=O)Cc1ccc(NC(=O)OC(C)(C)C)cc1)C=CC2=O | 2030 nM | 1030 nM | 460 nM | 1320 nM |  |  |  |  |  |  |  | 
3 | CC(C)=CCC/C(C)=C/[C@H]1OC(=O)C[C@]12C[C@H](OC(=O)Cc1cccs1)C=CC2=O | 10100 nM | 4140 nM | 4820 nM | 2460 nM |  |  |  |  |  |  |  | 
4 | CC(C)=CCC/C(C)=C/[C@H]1OC(=O)C[C@]12C[C@H](OC(=O)c1cc3ccccc3n1C)C=CC2=O | 10400 nM | 1340 nM | 2510 nM | 1220 nM |  |  |  |  |  |  |  | 
5 | CC(C)=CCC/C(C)=C/[C@H]1OC(=O)C[C@]12C[C@H](OC(=O)c1csc(Br)n1)C=CC2=O | 5030 nM | 2060 nM | 3430 nM | 620 nM | 5 |  |  |  |  |  |  | 
6 | CCC/C=C/C(=O)O[C@@H]1C=CC(=O)[C@@]2(CC(=O)O[C@@H]2/C=C(\C)CCC=C(C)C)C1 | 19200 nM | 12400 nM | 43600 nM | 11000 nM |  |  |  |  |  |  |  | 
7 | CC(C)=CCC/C(C)=C/[C@H]1OC(=O)C[C@]12C[C@H](OC(=O)Cn1nnc3ccccc31)C=CC2=O | 8310 nM | 2410 nM | 6350 nM | 3900 nM |  |  |  |  |  |  |  | 
8 | CC(C)=CCC/C(C)=C/[C@H]1OC(=O)C[C@]12C[C@H](OC(=O)Cn1cnc3c(=O)n(C)c(=O)n(C)c31)C=CC2=O | 5380 nM | 4420 nM | 2840 nM | 3470 nM |  |  |  |  |  |  |  | 
9 | CC(C)=CCC/C(C)=C/[C@H]1OC(=O)C[C@]12C[C@H](OC(=O)Cc1ccc(F)cc1)C=CC2=O | 3030 nM | 7480 nM | 5000 nM | 2220 nM |  |  |  |  |  |  |  | 
10 | CC(C)=CCC/C(C)=C/[C@H]1OC(=O)C[C@]12C[C@H](OC(=O)Cc1ccc(NC(=O)[C@H](Cl)c3ccccc3)cc1)C=CC2=O | 1040 nM | 420 nM | 630 nM | 580 nM |  |  |  |  |  |  |  | 
11 | CC(=O)Nc1ccc(CC(=O)O[C@@H]2C=CC(=O)[C@@]3(CC(=O)O[C@@H]3/C=C(\C)CCC=C(C)C)C2)cc1 | 7010 nM | 2160 nM | 4730 nM | 4190 nM |  |  |  |  |  |  |  | 
12 | CC(C)=CCC/C(C)=C/[C@H]1OC(=O)C[C@]12C[C@H](O)C=CC2=O | 4850 nM | 4680 nM | 4190 nM | 3040 nM |  |  |  |  |  |  |  | 
13 | CC(C)=CCC/C(C)=C/[C@H]1OC(=O)C[C@]12C[C@H](OC(=O)/C=C/C=C/c1ccc3c(c1)OCO3)C=CC2=O | 19400 nM | 1660 nM | 8850 nM | 2870 nM |  |  |  |  |  |  |  | 
14 | CC(C)=CCC/C(C)=C/[C@H]1OC(=O)C[C@]12C[C@H](OC(=O)Cc1ccc(NC(=O)C(C)(C)C)cc1)C=CC2=O | 1750 nM | 570 nM | 1360 nM | 800 nM |  |  |  |  |  |  |  | 

Continued, in another order:

Row | IC50 [1] | IC50 [2] | IC50 [3] | IC50 [4] | SMILES | Ratio IC50 [5] | Ratio IC50 [6] | selectivity ratio at 24 h [7] | IC50 at 48 h [8] | selectivity ratio at 48 h [9] | selectivity ratio at 48 h [10] | selectivity ratio at 24 h [11] | IC50 at 24 h [12]
15 | 5330 nM | 1910 nM | 9540 nM | 980 nM | COC(=O)C[C@@]12C[C@@H](C=CC1=O)O[C@@H]2/C=C(\C)CCC=C(C)C |  |  |  |  |  |  |  | 
16 | 2110 nM | 3200 nM | 1660 nM | 1140 nM | CC(C)=CCC/C(C)=C/[C@H]1OC(=O)C[C@]12C[C@H](OC(=O)CNC(=O)OC(C)(C)C)C=CC2=O | 2.7 | 1.5 |  |  |  |  |  | 
17 | 280 nM | 450 nM | 1720 nM | 50 nM | CC(=O)O[C@H]1C(=O)[C@@]2(C)[C@H]([C@H](OC(=O)c3ccccc3)[C@]3(O)C[C@H](OC(=O)[C@H](O)[C@@H](NC(=O)c4ccccc4)c4ccccc4)C(C)=C1C3(C)C)[C@]1(OC(C)=O)CO[C@@H]1C[C@@H]2O [PACLITAXEL] |  |  | 1.18 | 90 nM | 1.8 | 0.2 | 0.19 | 330 nM
18 | 1560 nM | 540 nM | 1290 nM | 670 nM | COc1ccccc1C(=O)Nc1ccc(CC(=O)O[C@@H]2C=CC(=O)[C@@]3(CC(=O)O[C@@H]3/C=C(\C)CCC=C(C)C)C2)cc1 |  |  |  |  |  |  |  | 
19 | 2240 nM | 460 nM | 1630 nM | 640 nM | CC(C)=CCC/C(C)=C/[C@H]1OC(=O)C[C@]12C[C@H](OC(=O)Cc1ccc(NC(=O)c3cccs3)cc1)C=CC2=O |  |  |  |  |  |  |  | 
20 | 3310 nM | 1340 nM | 3330 nM | 1550 nM | CC(C)=CCC/C(C)=C/[C@H]1OC(=O)C[C@]12C[C@H](OC(=O)CCC(=O)NCC1CC3C=CC1C3)C=CC2=O (stereo not given in full) |  |  |  |  |  |  |  | 
21 | 390 nM | 730 nM | 2220 nM | 370 nM | CC(C)=CCC/C(C)=C/[C@H]1OC(=O)C[C@]12C[C@H](OC(=O)Cc1ccc(NC(=O)c3ccccc3)cc1)C=CC2=O |  |  |  |  |  |  |  | 
22 | 4930 nM | 5070 nM | 3070 nM | 2140 nM | CC(C)=CCC/C(C)=C/[C@H]1OC(=O)C[C@]12C[C@H](OC(=O)Cc1ccc(F)cc1Cl)C=CC2=O |  |  |  |  |  |  |  | 
23 | 990 nM | 440 nM | 850 nM | 220 nM | CC(C)=CCC/C(C)=C/[C@H]1OC(=O)C[C@]12C[C@H](OC(=O)Cc1ccc(NC(=O)/C=C/c3ccccc3)cc1)C=CC2=O |  |  |  |  |  |  |  | 
24 | 15600 nM | 35400 nM | 19000 nM | 8230 nM | CC(C)=CCC/C(C)=C/[C@H]1OC(=O)C[C@]12C[C@H](OC(=O)Cc1ccc(Cl)cc1Cl)C=CC2=O |  |  |  |  |  |  |  | 
25 | 8710 nM | 1620 nM | 4540 nM | 3110 nM | C=CC(=O)Nc1ccc(CC(=O)O[C@@H]2C=CC(=O)[C@@]3(CC(=O)O[C@@H]3/C=C(\C)CCC=C(C)C)C2)cc1 |  |  |  |  |  |  |  | 
26 | 4210 nM | 4230 nM | 8140 nM | 2260 nM | COC(=O)C[C@@]1([C@H](O)/C=C(\C)CCC=C(C)C)C[C@H](O)C=CC1=O [(+)-MILIUSANE XVIII] |  |  |  |  |  |  |  | 
27 | 2480 nM | 580 nM | 960 nM | 840 nM | CC(C)=CCC/C(C)=C/[C@H]1OC(=O)C[C@]12C[C@H](OC(=O)Cc1ccc(NC(=O)c3ccccc3Cl)cc1)C=CC2=O |  |  |  |  |  |  |  | 
28 | 6810 nM | 2770 nM | 2230 nM | 3380 nM | CC(C)=CCC/C(C)=C/[C@H]1OC(=O)C[C@]12C[C@H](OC(=O)Cc1ccc3c(c1)OCO3)C=CC2=O |  |  |  |  |  |  |  | 
29 | 2300 nM | 560 nM | 1090 nM | 230 nM | CC(C)=CCC/C(C)=C/[C@H]1OC(=O)C[C@]12C[C@H](OC(=O)Cc1ccc(NC(=O)C3CC3)cc1)C=CC2=O |  |  |  |  |  |  |  | 
